Measured values: patent US20240150396A1 (The Texas A&M University System, priority 2021, published 2024)
Several values for one entry are separate records, joined by “and”; a condition that tells them apart may be missing. Identical values can stand only once. Like-named read-outs stand apart in the source and are kept apart here.

Assays:
cruzain = cruzain (Trypanosoma cruzi, UniProt P25779); experiment: biochemical; conditions: for Ki: pH 7.5
How it was run: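 Fluorogenic assay at 25 °C following AMC release (ex 360/em 460 nm), with typically 0.2 nM cruzain and 10% DMSO, at pH 7.5 or 5.5 buffer with 5 mM DTT.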

human cathepsin L = human cathepsin L (Homo sapiens (Human), UniProt P07711); experiment: Human cathepsin L inhibition, Z-FR-AMC assay; format: biochemical; conditions: pH 5.5, 25° C., 10% DMSO; read-out: Ki* Human Cathepsin L
human cathepsin L, sequence (P07711 114-333): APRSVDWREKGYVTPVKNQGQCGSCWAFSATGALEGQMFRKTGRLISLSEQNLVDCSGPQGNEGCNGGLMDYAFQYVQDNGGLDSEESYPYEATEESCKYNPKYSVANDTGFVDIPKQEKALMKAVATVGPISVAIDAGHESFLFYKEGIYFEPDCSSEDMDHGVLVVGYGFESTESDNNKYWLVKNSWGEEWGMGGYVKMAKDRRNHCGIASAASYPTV
How it was run: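 Recombinant human enzymes were assayed at 25°C in sodium acetate pH 5.5 with 1 mM CHAPS, 1 mM EDTA, 5 mM DTT and 10% DMSO final, using the fluorogenic substrate Z-FR-AMC. AMC release (ex 360/em 460 nm) was followed over 30–60 min and converted to rates (μM/s) via an AMC standard curve.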

human cathepsin B = human cathepsin B (Homo sapiens (Human), UniProt P07858); experiment: Human cathepsin B inhibition, Z-FR-AMC assay; format: biochemical; conditions: pH 5.5, 25° C., 10% DMSO; read-out: Ki* Human Cathepsin B
Experimental: Recombinant human cathepsins B and L were purchased from Millipore Sigma and used without further treatment. The solid proteins were dissolved into a solution of 50 mM sodium acetate (pH 5.5), 1 mM EDTA, 1 mM CHAPS, 10% (v/v) DMSO, and 5 mM DTT to final concentrations of […] in 20-mL aliquots, and stored at −80° C. until needed. These samples were then diluted into the same buffer to concentrations of −100 nM, and these dilutions were stored at 4° C. and used daily until depletion.
For assays of cathepsin L and B, inhibitors were evaluated in 0.25-mL reaction mixtures containing a buffer of sodium acetate (pH 5.5), 1 mM CHAPS, 1 mM Na2EDTA, and 5 mM DTT at 25° C. The fluorogenic substrate Cbz-Phe-Arg-7-amino-4-methyl-coumarin (Z-FR-AMC) was dissolved in 100% DMSO, as were all inhibitors, and aliquots of both substrates and inhibitors were added to reaction mixtures to final concentrations of DMSO of 10% (v/v). […] Formation of the fluorescent product AMC was monitored over 30-60-minute time courses for reaction mixtures in 96-well black microplates (Corning Costar®). Rates of peptidolysis of the dipeptide-AMC substrate(s) were measured on either a SpectraMax M5 (Molecular Devices) or a Synergy HTX (Biotek, Wisnooki, VT) microplate reader with λex=360 nm, λem=460 nm in ≥8-sec intervals. Control samples excluded substrate. The measured relative fluorescence units (RFUs) of generated AMC were converted to reaction rates of μM/s by use of a standard curve of known AMC concentrations obtained for both plate readers.

human cathepsin S = human cathepsin S (Homo sapiens (Human), UniProt P25774); experiment: Human cathepsin S inhibition; format: biochemical; conditions: pH 5.5, 25° C., 10% DMSO
human cathepsin S, sequence (P25774 115-331): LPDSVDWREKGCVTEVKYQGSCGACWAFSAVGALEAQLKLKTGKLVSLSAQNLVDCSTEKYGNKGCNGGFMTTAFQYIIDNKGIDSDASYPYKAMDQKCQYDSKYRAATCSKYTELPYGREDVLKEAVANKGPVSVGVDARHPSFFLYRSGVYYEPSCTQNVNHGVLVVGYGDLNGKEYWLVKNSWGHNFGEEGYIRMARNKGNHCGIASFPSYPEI
Experimental: Cruzain inhibitors were added at seven concentrations and one fixed concentration of Cbz-Phe-Arg-AMC, and time courses of AMC formation were analyzed as with cruzain.

[1] = system: T. b. brucei procyclic forms; experiment: Growth of axenic cultures of T. b. brucei procyclic forms (PCFs); format: cell-based, Trypanosoma brucei brucei; conditions: Trypanosoma brucei, axenic culture; read-out: EC50 T. b. brucei PCF
human dermal fibroblasts = experiment: Human cell toxicity, resazurin viability; format: cell-based; conditions: human dermal fibroblasts; read-out: Human Cell Cytotoxicity CC50
Experimental: Primary human dermal fibroblast (HDF) cells were used to evaluate human cell toxicity of cruzain inhibitors. HDF cells were plated in a 384-well plate at 2400 cells per well (62,000 cells mL^−1). Inhibitors in 100% DMSO were added in duplicate to final concentrations of 0.001-0.1 mM and 1% DMSO (v/v) with 1% DMSO as a control sample, and cells were cultured at 37° C. for 48 h, followed by the addition of resazurin. Cell viability was then assessed by reading of fluorescence (excitation/emission: 544 nm/590 nm) after an additional 24 h of incubation.

[2] = Host cell cytotoxicity in the T. cruzi infection model; format: cell-based, mouse; conditions: mouse; host cardiomyoblasts; read-out: C2C12 Cytotoxicity CC50
Experimental: The plates were incubated at 37° C. for 48 h, and the wells were fixed with 2% paraformaldehyde in PBS and stained with 5 μg mL-1 4,6-diamidino-2-phenylindole. After at least 30 min of incubation at room temperature in the dark, the plates were read in an automated microscope, ImageXpress Micro XL (Molecular Devices), and the images were analyzed by custom-built software to quantify and assess viability of the parasites, as well as the host cells independently. The compilation of data was used to calculate the antiparasitic activity (EC50) and host cytotoxicity (CC50).
T. cruzi infection was evaluated in C2C12 murine cardiomyoblast cells. […] The wells were fixed with 2% PFA in PBS, and stained by 5 μg/ml of DAPI. After >30 min of incubation in a dark environment, the plates were read on an ImageXpress MicroXL microscope (Molecular Devices). The images were analyzed to quantify parasites as well host cells.

[3] = Thiolation of inhibitors with glutathione, LCMS; format: physicochemical; conditions: 1 mM glutathione, 0.5 mM compound, Tris pH 8.0, 10% DMSO, room temperature
Experimental: Samples were analyzed by HPLC-MS (as described above) by injecting 0.01 mL aliquots onto a Luna […] C18(2) 100 Å, 4.6 mm, 50 mm column (Phenomenex) using the HPLC method described in the chemistry section at 0-6 h time points. […] Integration of the chromatographic peaks of the inhibitors and their GSH adducts at each time point was used to determine the rate of GSH adduct formation.

CYPs 3A4, 2D6 and 2C9 [4] = conditions: human, 4 h, 0.5 mM, pH 7.5
[5] = system: T. b. brucei bloodstream forms; experiment: Growth of axenic cultures of T. b. brucei bloodstream forms (BSFs)
[6] = system: T. cruzi (Ca-I/72) in C2C12 murine cardiomyoblasts; experiment: T. cruzi-infected murine cardiomyoblasts (C2C12); format: cell-based, Trypanosoma cruzi
How it was run: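 Infected-host-cell imaging assay: inhibitor, 3-fold dilutions topping at 10 μM, was added to C2C12 murine cardiomyoblasts infected with 10^3 or 10^4 Ca-I/72 parasites for 2 days at 37° C. DAPI-stained fixed wells were imaged to count parasites and host cells separately, yielding antiparasitic EC50 and cytotoxic CC50.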

[7] = system: T. cruzi (Ca-I/72) in C2C12 murine cardiomyoblasts; conditions: antichagasic activity, Ref. 55; cited from earlier work
[8] = system: SARS-CoV-2 in Vero E6 cells; experiment: Anti-CoV-2 activity in Vero E6 cells; format: cell-based
[9] = system: SARS-CoV-2 in A549/ACE2 cells; format: cell-based; conditions: read-out: Anti-CoV-2 EC50 A549/ACE2 Cells
CYPs 3A4, 2D6 and 2C9 [10] = experiment: Stability of acetal prodrugs to CYPs; conditions: CYP 3A4, 2D6, 2C9, NADPH-regenerating system, up to 4 h
[11] = Detection of aldehyde content using phenylhydrazine; format: physicochemical; conditions: 1 mM phenylhydrazine
Experimental: Detection of Aldehyde Content Using Phenylhydrazine. In a 96-well clear microplate, compounds 52 and 36 in DMSO solutions, or pure DMSO as a control, were diluted into the above NMR buffer without addition of DTT to make 250 μL-samples, each containing 0.2 mM of compounds and 10% DMSO (v/v). Upon addition of 1M phenylhydrazine (0.25 μL), the formation of phenylhydrazone in these wells were continuously monitored for 2 hours by measuring UV absorbance at the maximal wavelength of 282 nm.

[12] = system: esterase from porcine liver; experiment: Hydrolysis of SMAI prodrugs by porcine esterase; format: in vitro ADME; conditions: for half-life of conversion to compound 36: porcine esterase, buffer pH 7.5, 37° C.
Experimental: Evaluation of SMAI Prodrugs. Esterase from porcine liver was obtained as an ammonium sulfate suspension (Sigma-Aldrich, E2884, 10 U/μL). Compounds 37-39 in 100% (v/v) DMSO solutions were diluted by 10-fold into cruzain assay buffer to make 1 mL-samples, each containing 2 mM compound. For the experimental sample, 4 μL of esterase suspension was added to the reaction mixtures (40 U/mL), which was immediately placed on a low-speed orbital shaker in a 37° C. incubator. In the meantime, a negative control (lacking esterase) and a blank control (buffer only) were included. Aliquots (140 μL) of the reaction mixtures were removed at 0, 15, 30, 60, 120, 180, and 300 min, and reactions were quenched by the addition of MeCN (260 μL). The resulting solution was vortexed, followed by centrifugation to precipitate the protein, and the resulting compounds in the supernatant were analyzed by HPLC-MS with detection at 270 nm.
Rates of de-acylation reactions of SMAI prodrugs 37-39 were obtained upon evaluation of the first-order loss of reagent as fitted to eq. 6, in which A0 and C are the initial and final fraction of unhydrolyzed compound, respectively, k is the pseudo-first order rate constant, from which the half-life was t1/2=ln 2/k.

[13] = system: T. b. brucei bloodstream forms; conditions: Ref. 25; read-out: EC50 in T. b. brucei BSFs; cited from earlier work
[14] = apparent tight-binding inhibition constant, 25° C., read-out: Ki*
[15] = read-out: EC50 T. b. brucei BSF, axenic culture
[16] = obtained >10 minutes following initiation of reaction by addition of enzyme, read-out: Ki* Cruzain
[17] = C2C12 murine cardiomyoblasts, read-out: EC50 T. cruzi-infected cardiomyoblasts

cruzain, sequence (P25779 123-467 limits assumed): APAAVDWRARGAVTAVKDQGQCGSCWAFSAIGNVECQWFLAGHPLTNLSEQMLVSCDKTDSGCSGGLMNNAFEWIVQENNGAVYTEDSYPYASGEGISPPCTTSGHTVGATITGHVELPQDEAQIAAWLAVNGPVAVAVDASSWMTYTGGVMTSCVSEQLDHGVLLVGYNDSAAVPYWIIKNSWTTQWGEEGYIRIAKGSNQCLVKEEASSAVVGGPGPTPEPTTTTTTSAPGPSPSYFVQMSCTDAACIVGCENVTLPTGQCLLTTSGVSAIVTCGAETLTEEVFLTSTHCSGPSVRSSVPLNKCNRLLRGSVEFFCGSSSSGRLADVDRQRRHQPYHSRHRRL

Structure (SMILES) | Ki (cruzain; [14]) [µM] | EC50 [5, 15] [µM] | Ki (cruzain; [16]) [µM] | EC50 [8] [µM] | EC50 [9] [µM] | half-life of conversion to compound 36 [12] [min] | also measured
O=C(N[C@@H](Cc1ccccc1)C(=O)N[C@H](/C=C/c1ncccn1)Cc1ccccc1)OCc1ccccc1 [Compound 7, Benzyl ((S)-1-Oxo-3-phenyl-1-(((S,E)-1-phenyl-4-(pyrimidin-2-yl)-but-3-en-2-yl)amino)propan-2-yl)carbamate] | 0.38 | – | – | – | – | – | Ki (cruzain; Ki* Cruzain, obtained >10 minutes following initiation of reaction by addition of enzyme): 0.12 to 0.4 µM and 0.31 µM; Ki (cruzain; apparent initial inhibition constant, 25° C., read-out: Ki): 28 ± 1 µM; k4 (cruzain; conversion of EI* back to EI, from kobs replot or recovery after preincubation and dilution): 0.0018 ± 0.0003 s⁻¹; Ki (human cathepsin L): 1.1 ± 0.1 µM; Ki (human cathepsin B): 32 ± 3 µM; Ki (human cathepsin S): 0.37 ± 0.02 µM; EC50 [1]: 5 to 15 µM; CC50 (human dermal fibroblasts): > 100 µM; CC50 at 48 h [2]: > 10 µM; Rate of Thiolation, k [3]: Negligible
CCOC1Oc2ccccc2C[C@@H]1NC(=O)[C@H](Cc1ccccc1)NC(=O)N1CCN(C)CC1 (stereo partly drawn) [Compound 40, N-((2S)-1-(((3S)-2-ethoxychroman-3-yl)amino)-1-oxo-3-phenylpropan-2-yl)-4-methylpiperazine-1-carboxamide] | – | 12 ± 0.1 | – | – | – | – | transformation to 36 by CYPs (CYPs 3A4, 2D6 and 2C9 [4]): no transformation to 36 was observed; EC50 ([5]; Trypanosoma brucei, read-out: EC50 T. b. brucei BSF, axenic culture): 11 to 14 µM
O=C(Cn1ccnc1[N+](=O)[O-])NCc1ccccc1 [benznidazole, reference compound] | – | – | – | – | – | – | EC50 ([6]; Trypanosoma cruzi, C2C12, read-out: EC50 T. cruzi-infected cardiomyoblasts): 4 ± 2 µM; LD50 [7]: 1.5 µM
CC(C)OC1Oc2ccccc2C[C@@H]1NC(=O)[C@H](Cc1ccccc1)NC(=O)N1CCN(C)CC1 (stereo partly shown) [Compound 41] | > 5 | 14 ± 0.9 | > 5 | > 20 | 5 | – | transformation to 36 by CYPs (CYPs 3A4, 2D6 and 2C9 [10]): no transformation to 36 was observed
CN1CCN(C(=O)N[C@@H](Cc2ccccc2)C(=O)N[C@H](C=O)CCc2ccccc2)CC1 [Compound 52, 4-Methyl-N—((S)-1-oxo-1-(((S)-1-oxo-4-phenylbutan-2-yl)amino)-3-phenylpropan-2-yl)piperazine-1-carboxamide] | – | – | 0.0005 ± 0.0002 | – | – | – | residence time (cruzain): 45 min; kobs of phenylhydrazone formation ([11]; 0.2 mM compound): (2.61±0.05)×10^−4 s^−1; free aldehyde by phenylhydrazine treatment ([11]; aqueous buffer, 2 hours): completely converted to phenylhydrazone
CCC(=O)OC1Oc2ccccc2C[C@@H]1NC(=O)[C@H](Cc1ccccc1)NC(=O)N1CCN(C)CC1 (stereo partly shown) [Compound 38] | – | 3.1 ± 0.2 | > 5 | 2.5 | 0.62 | 24 | –
CC(=O)OC1Oc2ccccc2C[C@@H]1NC(=O)[C@H](Cc1ccccc1)NC(=O)N1CCN(C)CC1 (stereo partly drawn) [Compound 37, (3S)-3-((S)-2-(4-methylpiperazine-1-carboxamido)-3-phenylpropanamido)chroman-2-yl acetate] | 1 | 3.7 | ~1 | 2.5 | 0.31 | 48 | EC50 [6, 17]: 13 ± 2 µM; degradation in buffer without esterase ([12]; over 3 h, pH 7.5): about 10%
N=C(N)c1ccc(/N=N/Nc2ccc(C(=N)N)cc2)cc1 [diminazene] | – | – | – | – | – | – | EC50 [13]: 0.99 µM
CC(C)C(=O)OC1Oc2ccccc2C[C@@H]1NC(=O)[C@H](Cc1ccccc1)NC(=O)N1CCN(C)CC1 (stereo partly shown) [Compound 39] | – | 4 ± 0.2 | > 5 | 4 | 0.31 | 16 | EC50 [6, 17]: 14 ± 6 µM
